Assay results as given in paper PMC8308625, “Preclinical Studies in Anti-Trypanosomatidae Drug Development” (Pharmaceuticals, 2021).
Read-outs that look alike come from different tables or passages of the source.

Assays:
T. cruzi = details: cited from earlier work
[1] = tested on: L. infantum reference strain (MHOM/BR/2002/LPC-RPV); assay: Growth inhibition of L. infantum reference strain promastigotes (resazurin); details: for EC50: read-out: EC50 ± SD Lin–Ref
T. brucei = assay: Growth inhibition of T. brucei bloodstream form trypomastigotes (resazurin); type: cell-based, Trypanosoma brucei brucei; details: for EC50: read-out: EC50 ± SD T. brucei
Protocol: Compounds were dissolved in dimethylsulfoxide (DMSO).

fibroblasts (NCTC929) = assay: Cytotoxicity in fibroblasts; type: cell-based
Text: Table 5 Cytotoxicity and selectivity index of reference drugs and selected molecules. | column: EC50 ± SD (µM) ^a / Fibroblasts

L. infantum amastigote = assay: Single dose study in the amastigote form of L. infantum; type: cell-based; details: Leishmania infantum, single dose 10 µM
[2] = design: method as in PMID 24749923, PMID 26492824, PMID 25512408; details: ref [13],[14],[15]; cited from earlier work
[3] = cited from earlier work
[4] = cited from earlier work; remark: listed apart in the source
[5] = mice, up and down test, cited from earlier work
L. braziliensis = details: read-out: EC50 ± SD L. brazils, cited from earlier work
[6] = Acute oral toxicity (up and down test); details: mice
L. amazonensis [7] = assay: Murine model of cutaneous Leishmaniasis; details: BALB/c mice, oral, when treatment begins (Figure 2C)
Protocol: For the in vivo model of cutaneous disease, 1 × 10^7 amastigote parasites of L. amazonensis PH8 were inoculated in the upper part of the left paw of the mice. […] The mice were sacrificed 30 days post-infection. The antiparasitic effect was evaluated by two methods: the weekly evolution of the diameter of the infected paw throughout the experiment (Figure 2C) and the quantification of the parasite load in the infected area at the end of the experiment (Figure 2A).
Golden hamsters (Mesocritus auratus) were used to maintain L. amazonensis infections with the parasites passage every 6 to 8 weeks. BALB/c mice (female and male) supplied by the IFFA-CREDO, Lyon, France, and bred at the Instituto de Investigaciones en Ciencias de la Salud, Asuncion, Paraguay, were inoculated in the right hind footpad with 2 × 10^6 L. amazonensis amastigotes in 100 µL PBS obtained from donor hamsters. Disease progression was monitored by the measurement of lesion diameters for 7 to 12 weeks. […] Two days before the administration of the drug, the mice were randomly divided into groups of eight. […] The animals were euthanized two weeks after cessation of treatments to assess parasitological loads in the infected footpad. […] Following incubation at 27 °C for seven days, cultures were examined with an inverted microscope (Olympus, Tokyo, Japan) at a magnification of ×400. The number of parasites per gram in the lesion was calculated by the following equation: Parasite burden = geometric mean of the number of parasites in each duplicate/(number of microscope field counted × weight of lesion × (25,000) hemocytometer correction factor) [37]. […] Comparisons of parasite suppression in the infected footpads of the untreated and drug-treated groups were performed by Student’s t-test. One-way ANOVA (as a non-parametric statistical test) was also used on ranks.

[8] = tested on: J774.1 murine macrophages; assay: Nonspecific cytotoxicity in murine macrophages (MTT)
Protocol: Cell viability was then assessed using the 3-(4,5-dimethylthiazol-2-yl)-2,5-diphenyltetrazolium bromide (MTT) colorimetric assay [1]. […] All assays were performed in triplicate [35].

L. amazonensis [9] = assay: Growth inhibition of L. amazonensis promastigotes (resazurin); details: for EC50: read-out: EC50 ± SD L. amaz
[10] = tested on: L. infantum veterinary isolate (MCAN_UY_2015_gPL8); assay: Growth inhibition of L. infantum veterinary isolate promastigotes (resazurin); details: for EC50: read-out: EC50 ± SD Lin–Vet
[11] = Liver fraction stability (cytosolic and microsomal fraction of rat hepatocytes, TLC); type: in vitro ADME; details: rat hepatocyte cytosolic and microsomal fractions, 37 °C
Protocol: For the determination of the stability in the different fractions, (cytosolic and microsomal of rat hepatocytes) the different proteins present in them were used. The fractions were prepared according to the previously reported protocol. […] The final concentration of the molecules in the aqueous medium was 400 µM and prepared from a stock in DMSO of 40 mM. The solutions were homogenized and incubated at 37 °C at 10 min, 30 min, 1 h, 2 h, 3 h and 4 h. (by TLC). For this, it was incubated at 37 °C in a volume of 1 mL: 2.5 µL of 30 mM Magnesium Chloride (MgCl); 2.5 µL of 40 mM Nicotinamide Adenosine Dinucleotide Phosphate (NADP+); 5 µL of 350 mM Glucose 6- Phosphate (Glu6P); 5 µL of Glucose 6- phosphate dehydrogenase (Glu6PD) 50 U/mL, 5 µL of the stock of 40 mM compounds and the volume of the Phosphate Buffer (pH = 7) must be such that cytosolic (CF) and microsomal (MF) fraction FC and FM present a final protein concentration of 0.1 mg/mL. After that, the stability of compounds 796 and 1019 in the cytosolic (FCF) and microsomal (FMF) fraction of rat hepatocytes was evaluated at different times (1–4 h). Thin-layer chromatography of ethyl acetate extracts was conducted to evaluate the presence of decomposition products. The mobile phase used for these TLCs was n-hexane: ethyl acetate (7: 3).

[12] = Table 3, thiazolidene hydrazines, ref [13],[16],[19],[23],[25], read-out: EC50 ± SD T. cruzi
[13] = Trypanosoma brucei, Table 3, thiazolidene hydrazines
[14] = Table 4, curcuminoids, ref [14], read-out: EC50 ± SD T. cruzi
[15] = Table 4, curcuminoids, L. infantum reference strain
[16] = read-out: EC50 ± SD Fibroblasts
[17] = Table 4, curcuminoids, ref [14]
[18] = read-out: EC50 ± SD MΦ, murine macrophages, footnote: J774.1 macrophages or differentiated THP-1 monocytes
[19] = Table 4, curcuminoids, L. infantum veterinary isolate

For `C=CCNC(=S)NN=CC=Cc1ccc(C)o1` [Compound 263], the EC50 (T. cruzi; [12]) is given as 5 ± 1 µM and the EC50 ([1]; Table 3, thiazolidene hydrazines, L. infantum reference strain) is given as < 0.3 µM.
`C=CCn1c(-c2ccc(Cl)cc2)cs\c1=N/N=C/C=C/c1ccco1` [Compound 266] showed an EC50 (T. brucei; [13]) of 5 ± 1 µM, an EC50 (fibroblasts (NCTC929); NCTC-929, read-out: EC50 ± SD Fibroblasts) of 405 ± 10 µM and an inhibition at 10 µM (L. infantum amastigote) of 69%. The EC50 (T. cruzi; [12]) was 1.6 ± 0.5 µM, the EC50 (T. cruzi; amastigotes, multiple strains, ref [13],[14],[15], read-out: EC50 in vitro anti-T. cruzi, amastigotes) was > 0.25 µM and the “Stability in vitro (microsomal, plasma, other solutions)” value [2] was “high”. For the same compound, the “AMES test, mutagenic capacity” value ([3]; previous works, ref [13],[16]) was “negative”, the “Ames Test (mutagenicity)” value ([3]; ref [13],[14],[15]) was “no” and the “micronucleus test, genotoxicity” value ([4]; previous works, ref [13],[16]) was “not genotoxic”. The “Micronucleus test in mice (Genotoxicity)” value ([4]; ref [13],[14],[15]) was “no”, the “acute toxicity LD50” value ([5]; previously evaluated, ref [13],[16]) was > 2000 mg/kg of weight and the “Acute oral toxicity LD50” value ([5]; ref [13],[14],[15]) was “LD50 > 2000 mg/kg in mice”. The EC50 (L. braziliensis; Table 3, thiazolidene hydrazines, ref [13],[16],[19],[23],[25]) was 20 ± 2 µM, the “survival in the acute toxicity model in vivo” value [6] was 100% and the “diameter of the paw” value (L. amazonensis [7]) was “begins to decrease”. For the same compound, the EC50 ([8]; Mus musculus, J774.1, read-out: EC50 ± SD MΦ) was 60 ± 6 µM, the “Selectivity Index MΦ/L. amaz” value (L. amazonensis [9]; EC50 mammalian cell line/EC50 L. amazonensis) was 9 and the EC50 (L. amazonensis [9]; Leishmania amazonensis) was 7 ± 1 µM. The “Selectivity Index MΦ/Lin–Ref” value ([1]; EC50 mammalian cell line/EC50 L. infantum reference strain) was 30, the EC50 ([1]; Leishmania infantum) was 2 ± 0.2 µM and the “Selectivity Index MΦ/Lin–Vet” value ([10]; EC50 mammalian cell line/EC50 L. infantum veterinary isolate) was 7. For the same compound, the EC50 ([10]; Leishmania infantum) was 9 ± 1 µM.
In the case of `O=C(C=CC=Cc1ccco1)C=CC=Cc1ccco1` [Compound 793], the EC50 (T. brucei; Table 4, curcuminoids) is given as 17 ± 2 µM, the EC50 (T. cruzi; [14]) is given as 5 ± 0.7 µM and the EC50 [1, 15] is given as < 0.3 µM.
In the case of `O=C(C=Cc1ccco1)C=Cc1ccco1` [Compound 795], the EC50 (T. brucei; Table 4, curcuminoids) is reported as 1.8 ± 0.5 µM, the EC50 (fibroblasts (NCTC929); [16]) is reported as 114 ± 6 µM and the “metabolic stability: time compound detected / degraded” value [11] is reported as < 1 h. For the same compound, the EC50 (T. cruzi; [14]) was 24 ± 2 µM, the EC50 (L. braziliensis; [17]) was 6 ± 2 µM and the EC50 [8, 18] was 115 ± 2 µM. It also gave an EC50 (L. amazonensis [9]; Table 4, curcuminoids) of 10 ± 6 µM, an EC50 [1, 15] of 5 ± 1 µM and an EC50 [10, 19] of 10 ± 2 µM.
For `O=C(C=CC=Cc1ccccc1)C=CC=Cc1ccccc1` [Compound 797], the EC50 (T. cruzi; [14]) is given as 11 ± 2 µM.
In the case of `O=C(C=CC=Cc1cccs1)C=CC=Cc1cccs1` [Compound 798], the EC50 (T. cruzi; [14]) is given as 13 ± 1 µM, the EC50 (L. braziliensis; [17]) is given as 19 ± 5 µM and the EC50 [1, 15] is given as 3 ± 0.5 µM.
For `O=C1C(=Cc2ccccc2)CCCC1=Cc1ccccc1` [Compound 799], the EC50 (T. brucei; Table 4, curcuminoids) is listed as 1.7 ± 0.5 µM, the “metabolic stability: time compound detected / degraded” value [11] is listed as < 1 h and the EC50 (T. cruzi; [14]) is listed as 5 ± 1 µM. For the same compound, the EC50 (L. braziliensis; [17]) was 4.2 ± 0.9 µM, the EC50 [8, 18] was 115 ± 8 µM and the EC50 (L. amazonensis [9]; Table 4, curcuminoids) was 5 ± 1 µM. The EC50 [1, 15] was < 0.3 µM and the EC50 [10, 19] was 12 ± 3 µM.
In the case of `O=C1C(=CC=Cc2ccccc2)CCCC1=CC=Cc1ccccc1` [Compound 800], the EC50 (T. brucei; Table 4, curcuminoids) is listed as 15 ± 1 µM and the EC50 (T. cruzi; [14]) is listed as 14 µM.
In the case of `CC(C=CC(=O)C=CC(C)=Cc1ccco1)=Cc1ccco1` [Compound 809], the “trypanosomicidal effect on T. brucei” value (T. brucei) is given as “no trypanosomicidal effect”, the EC50 (fibroblasts (NCTC929); [16]) is given as 543 ± 6 µM and the EC50 (T. cruzi; [14]) is given as 8 ± 2 µM. The EC50 (L. braziliensis; [17]) was 6 ± 1 µM, the EC50 [8, 18] was 33 ± 8 µM and the EC50 (L. amazonensis [9]; Table 4, curcuminoids) was 16 ± 2 µM. For the same compound, the EC50 [1, 15] was 3 ± 1 µM and the “growth inhibitory / trypanosomicidal effect on the L. infantum canine-derived isolate” value [10] was “no trypanosomicidal effect”.
For `C=CCn1c(-c2ccc(Cl)cc2)cs\c1=N/N=C/C(C)=C/c1ccco1` [Compound 873], the EC50 (T. brucei; [13]) is listed as 14 ± 3 µM and the EC50 (T. cruzi; [12]) is listed as 0.09 ± 0.02 µM.
In the case of `C=CCn1c(-c2ccc(Cl)cc2)csc1=NN=Cc1ccsc1` [Compound 877], the EC50 (T. brucei; Table 3, thiazolidene hydrazines) is given as 10 ± 1 µM and the EC50 (T. cruzi; [12]) is given as 15 ± 3 µM.
In the case of `Clc1ccc(-c2csc(N/N=C/C=C/c3ccco3)n2)cc1` [Compound 901], the EC50 (T. brucei; [13]) is given as 5 ± 1 µM and the EC50 (T. cruzi; [12]) is given as 1.2 ± 0.3 µM.
